Laboratory results: patent US9717820B2, “Procoagulant peptides and their derivatives and uses therefor” (Ethicon, Inc., priority 2011, dated 2017)
No end group written: not given here. mPEG 5000 = methoxy-PEG, average 5000 Da, coupled via mPEG-NHS

Columns and labels:
[1] = system: porcine spleen biopsy punch model; assay: porcine spleen biopsy punch model, time to hemostasis; assay type: in vivo; conditions: for hemostatic performance vs Surgiflo with normal saline: ORC powder scaffold, FIG. 5, N=4; for time to hemostasis vs Surgiflo with saline and with PEG2000 (5 mM): FIG. 3, N=3; for hemostatic efficacy vs Surgiflo with thrombin: 0.05-5 mM; for time to hemostasis vs thrombin: FIG. 2, N=3; for hemostatic efficacy (time to hemostasis): pegylated (PEG2000) 8 amino acid peptides in mixture with Surgiflo, FIG. 5
Procedure: The data was collected using in vivo porcine spleen biopsy punch model [6 mm wide×3 mm deep], initial tamponade time: 30 s; observation time: 30 s; N=3.
In vivo hemostatic activity study was performed using the porcine spleen biopsy punch model, with the punched wound opening 6 mm wide×3 mm deep made on the spleen and the test article applied to a freshly created wound site followed by an occlusive digital pressure (tamponade). Pressure was initially applied for 30 second and was timed using an electronic timer. Following the 30 seconds tamponade, digital pressure was discontinued; the gauze pad on the article was immediately removed. A 30-second hemostasis evaluation period was performed. If free flow bleeding was not observed within 30 seconds, the time to hemostasis was noted, in a minutes seconds format, and testing was concluded for that article. If free flow bleeding was observed, pressure and gauze were reapplied for additional 30 seconds tamponade and observation periods until hemostasis was achieved or until the testing period reached ten minutes. Hemostasis was determined by the cessation of free flow bleeding in less than ten minutes. Gauze pad was used as a negative control.
The data was collected using porcine spleen biopsy punch model [6 mm wide×3 mm deep], initial tamponade time: 30 s; observation time: 30 s; N=3.
The data was collected using porcine spleen biopsy punch model [6 mm wide×3 mm […]], initial tamponade time: 30 s; observation time: 30 s; N=3.
The inventors have tested the following ORC-based compositions: • mixtures of ORC with pegylated SEQ ID NO: 1 at 5 mM concentration (designated on the chart as ORC/PEG2000-RK-8) • mixtures of ORC with SEQ ID NO: 1 at 5 mM concentration (designated on the chart as ORC/RK-8) • mixtures of ORC with normal saline The data was collected using porcine spleen biopsy punch model [6 mm wide×3 mm […]], initial tamponade time: 30 s; observation time: 30 s; N=4.
The data was collected using porcine spleen biopsy punch model [6 mm wide×3 mm deep], initial tamponade time: 30 s; observation time: 30 s.

[2] = system: washed human platelets; conditions: washed human platelets from different donors; cited from earlier work
[3] = system: Heparinized Porcine spleen biopsy punch model; assay: Heparinized porcine spleen biopsy punch model, time to hemostasis; assay type: in vivo; conditions: mixture with Surgiflo; for hemostatic effect in heparinized blood: 2 mL of 5 mM in saline (thrombin: EVITHROM), ACT above 300 seconds
Text: The model was Heparinized Porcine spleen biopsy punch model: 6 mm wide×3 mm deep, tamponade time: 30 sec; observation time: 30 sec; activated clotting time (ACT) was maintained above 300 seconds by infusing additional 2000 IU heparin solution if needed. 9975 IU of heparin solution was initially applied to a 39.1 Kg porcine.

[4] = system: porcine blood containing sodium citrate; assay: bench top test: solution added to citrated porcine blood in glass vials; conditions: 100 μL of 0.5 mM solution added to 100 μL citrated porcine blood; for precipitation of blood: after 2 hrs
Procedure: In a bench top experiment, pegylated SEQ ID NO: 1 in normal saline solution, non-pegylated SEQ ID NO: 1 in normal saline solution, and control solution of normal saline were tested to evaluate interaction with blood. Samples were prepared by adding 100 μL of pegylated SEQ ID NO: 1 in normal saline solution (0.5 mM), SEQ ID NO: 1 in normal saline solution (0.5 mM), and normal saline to separate glass vials containing 100 μL of porcine blood containing sodium citrate (0.105M). […] Thus the pegylated SEQ ID NO: 1 and non-pegylated SEQ ID NO: 1 was shown as promoting rapid blood coagulation.

[5] = system: fresh porcine blood; assay: bench top test: treated Monocryl pad with fresh porcine blood; conditions: 100 μL of 0.5 mM on 0.025 g Monocryl pad, 150 μL fresh porcine blood, 2 minutes, room temperature
Procedure: In a bench top experiment, a synthetic porous pad was treated with pegylated SEQ ID NO: 1 in saline solution or with control solution of saline to evaluate interaction with blood. Samples were prepared by adding 100 μL of pegylated SEQ ID NO: 1 in normal saline solution (0.5 mM) or 200 μL of normal saline solution to 0.025 g Monocryl (poliglecaprone 25) pad. The impregnated Monocryl* (poliglecaprone 25) pads were then air-dried for 2 hrs following by an 1-hr vacuum drying process.
150 μL of fresh porcine blood was then added to each pad separately, and allowed it sit at room temperature for 2 minutes. The pads were then transferred to a Petri dish containing 20 mL of saline solution, observing non-coagulated blood diffusing out from the pads. […] Thus the pegylated SEQ ID NO: 1 was shown as promoting rapid blood coagulation.

[6] = system: clopidogrel and acetylsalicylic acid treated porcine spleen biopsy punch model; assay: clopidogrel and acetylsalicylic acid treated porcine spleen biopsy punch model (platelet inactivated); assay type: in vivo; conditions: mixture with Surgiflo, 0.5 mM PEG2000-RK8 in saline, FIG. 8
Procedure: The data was collected using a clopidogrel and acetylsalicylic acid treated porcine spleen biopsy punch model (6 mm wide×3 mm deep, tamponade time: 30 sec; observation time: 30 sec; the following oral dosages were applied to a 4-month-old female porcine (weight: 66.1 Kg): • 2 days prior to the lab: 300 mg of Plavix and 325 mg of aspirin. • 1 day prior to the lab: 75 mg of Plavix and 325 mg of aspirin. • The day for the lab: 75 mg of Plavix and 325 mg of aspirin before the surgery.

[7] = mixture with Surgiflo, 5 mM, FIG. 6
[8] = mixture with Surgiflo, FIG. 4, N=3

Row | Substance | hemostatic performance vs Surgiflo with normal saline ([1]; 5 mM) | time to hemostasis vs Surgiflo with saline and with PEG2000 (5 mM) ([1]; mixture with Surgiflo, 5 mM) | effectiveness as hemostatic agent (time to hemostasis) [1, 7] | hemostatic efficacy vs Surgiflo with thrombin [1, 8] | hemostatic effect in heparinized blood ([3]; FIG. 7) | clouding of blood [4] | precipitation of blood [4] | hemostatic efficacy (time to hemostasis) ([1]; 5 mM) | further results
1 | Arg-Phe-Tyr-Val-Val-Met-Trp-Lys (RFYVVMWK) [SEQ ID NO: 1] | not suitable | much faster time to hemostasis | performed as well as thrombin | hemostatic efficacy comparable to mixtures of Surgiflo™ with thrombin | failed as hemostat in heparinized blood | instantly observed | complete precipitation of blood |  | concentrations that induce activation and aggregation of platelets [2]: 5 to 25 mM
2 | pegylated SEQ ID NO: 1: SEQ ID NO: 1 with mPEG (average 2000 Da) conjugated onto the N-terminus via mPEG-NHS ({mPEG 2000 Da}-RFYVVMWK) | not suitable | much faster time to hemostasis | performed as well as thrombin | better or similar hemostatic efficacy | some hemostatic effect | instantly observed | complete precipitation of blood |  | hemostatic testing ([1]; Pluronic acid F127 scaffold, 5 mM, FIG. 6): failed in hemostatic testing; time to hemostasis vs thrombin ([1]; mixture with Surgiflo, 0.05 mM to 5 mM): comparable to thrombin; time to hemostasis ([1]; mixture with Surgiflo, 0.05 mM, FIG. 4, N=3): particularly fast time to hemostasis; time to hemostasis vs thrombin ([1]; mixture with Surgiflo, 0.1 mM): possibly better time to hemostasis than Thrombin; hemostatic efficacy vs SEQ ID NO: 1 and Thrombin ([1]; mixtures with Surgiflo, FIG. 4, further analysis): better hemostatic efficacy than SEQ ID NO: 1 and Thrombin; coagulated blood trapped in treated pad [5]: significant amount of coagulated blood; hemostatic efficacy vs Surgiflo/Thrombin [6]: working as well as Surgiflo/Thrombin; time to hemostasis ([3]; 2 mL of 5 mM in saline, heparinized blood, FIG. 7): 6.8 min
3 | SEQ ID NO: 21: PEG2000-conjugated random sequence 8 amino acid peptide KVYRWFMV (PEG2000-KVYRWFMV) [reference compound] |  |  |  |  |  |  |  | longer time to hemostasis, comparable to SF/saline mixture | 
4 | SEQ ID NO: 7: PEG2000-conjugated peptide KYFLLQFR (Lys-Tyr-Phe-Leu-Leu-Gln-Phe-Arg) (PEG2000-KYFLLQFR) |  |  |  |  |  |  |  | somewhat longer time to hemostasis, comparable to non-pegylated SEQ ID NO: 1 | 
5 | thrombin |  |  |  |  | failed as hemostat in heparinized blood |  |  |  | 
6 | PEG5000-SEQ ID NO: 1: SEQ ID NO: 1 with mPEG 5000 conjugated onto the N-terminus via mPEG-NHS ({mPEG 5000}-RFYVVMWK) |  |  |  |  | significant hemostatic efficacy |  |  |  | hemostatic efficacy vs thrombin, non-pegylated SEQ ID NO: 1 and other controls ([3]; heparinized blood, 5 mM): superior hemostatic efficacy
